{"source": "patent US7026111B2", "about": "“Methods and reagents for improved cell-based assays” (Beckman Coulter, Inc., priority 2001, dated 2006)", "key": {"Caspase": {"system": "Caspase", "experiment": "One hour kinetic assay detection of Caspase using U-937 cells", "format": "cell-based", "details": "above the 50% DMSO concentration; due to non-specific signal from uninduced cell controls", "method": "(§1) To initiate such assays, 25 μl of Caspase CellProbe Reagent™ (Beckman Coulter) was added to a suspension of 1×10^5 U-937 cells in 110 μl of culture medium in a 96-well microtiter plate. Cells were incubated for one hour, and had been either uninduced or induced by prior incubation in the presence of 2.5 μM Camptothecin. The final concentration of the Caspase CellProbe Reagent™ was 30 μM.\nThe results shown in FIG. 4 is of kinetic signal from twenty fluorescence readings of the one hour assay. In FIG. 4, lines containing a diamond (♦) denote unmixed samples; lines containing boxes (▪) and appearing as thick lines denote mixed samples."}, "HeLa cells [1]": {"system": "HeLa cells", "experiment": "CellProbe assay in HeLa cells with betaine (Example 4)", "format": "cell-based", "details": "HeLa 1.5×10^4/well, 30 μM CellProbe substrate; particularly if unmixed", "method": "For such experiments, HeLa cells are seeded overnight at 1.5×10^4/well and provided with 30 μM CellProbe substrate (final concentration)."}, "HeLa cells [2]": {"system": "HeLa cells", "experiment": "CellProbe assay in HeLa cells with betaine (Example 5)", "format": "cell-based", "details": "betaine 2.0-2.4 M; HeLa 7.5×10^3/well, 25 μM CellProbe substrate; particularly if unmixed", "method": "The enhanced detection sensitivity of the assays of the present invention resulting from the use of Betaine (at 2.0, 2.1, 2.2, 2.3, 2.4 M) is shown in FIG. 8. For such experiments, HeLa cells are seeded overnight at 7.5×10^3/well and provided with CellProbe substrate (25 μM final concentration). […] Results of similar assays conducted with 35% DMSO are shown for comparison."}, "aminopeptidase": {"system": "aminopeptidase", "details": "concentrations of approximately 10 mM; cited from earlier work"}, "Caspase 6 [3]": {"system": "Caspase 6", "experiment": "Caspase 6 CellProbe assay in HeLa cells (Example 6)", "format": "cell-based", "details": "HeLa 1.5×10^4 cells/well, 30 μM CellProbe, 1 hour", "method": "To initiate such assays, Caspase CellProbe Reagent™ (Beckman Coulter) is added to a suspension of 1.5×10^4 HeLa cells/well in a 96-well microtiter plate. The final concentration of the Caspase CellProbe Reagent™ was 30 μM. Reaction is for 1 hour and is as described in Example 1."}, "Caspase 6 [4]": {"system": "Caspase 6", "experiment": "Caspase 6 CellProbe assay for apoptosis using HeLa cells (Example 2)", "format": "cell-based", "method": "To initiate 110 such assays, Caspase CellProbe Reagent™ (Beckman Coulter) is added to a suspension of 1.5×10^4 HeLa cells/well in a 96-well microtiter plate. The final concentration of the Caspase CellProbe Reagent™ was 30 μM. Reaction is for 1 hour.\nIn FIG. 5, and in the examples below, the Fluorescence Ratio is defined as: Fluorescence Ratio=Induced Fluorescence/Uninduced Fluorescence where the Induced Fluorescence is the difference between the 1 Hour Value and the Start of Assay Value, and the Uninduced Fluorescence is the difference between the 1 Hour Value and the Uninduced Start Value. In FIG. 5, data are plotted as a function of potassium glutamate or DMSO concentration. The dark columns indicate results obtained upon mixing the samples, while the light columns indicate results obtained when the samples were not mixed after the addition of glutamate."}, "Caspase 1": {"system": "Caspase 1", "experiment": "Caspase 1 CellProbe assay with U-937 suspension cells", "format": "cell-based", "method": "as §1\n(§2) In the Figures, the 5 series of columns reflect results obtained with no glycerol, 20% glycerol, 30% glycerol, 40% glycerol and 50% glycerol. The individual columns (left to right) within each data series reflect results for: unmixed sample—induced; unmixed sample—uninduced; mixed sample—induced; and mixed sample—uninduced."}, "Caspase 6 [5]": {"system": "Caspase 6", "experiment": "Caspase 6 CellProbe assay with U-937 suspension cells", "format": "cell-based", "method": "as §1, §2"}, "Caspase 3": {"system": "Caspase 3", "experiment": "Caspase 3 CellProbe assay with U-937 suspension cells", "format": "cell-based", "method": "as §1, §2"}, "[6]": {"details": "various optimal glycerol concentrations (20-50%), U-937 cells, 30 μM CellProbe, 1 hour"}}, "data": [{"smiles": "C[S+](C)[O-]", "note": "[DMSO, dimethyl sulfoxide]", "values": [{"measurement": "signal ratio (induced/uninduced)", "setting": "Caspase", "value": "signal ratio decrease"}]}, {"smiles": "C[N+](C)(C)CC(=O)O", "note": "[betaine]", "values": [{"measurement": "assay sensitivity", "setting": "HeLa cells [1]", "value": "improved assay sensitivity"}, {"measurement": "assay sensitivity", "setting": "HeLa cells [2]", "value": "improved assay sensitivity"}]}, {"smiles": "[Ca+2].[Cl-].[Cl-]", "note": "[calcium chloride]", "values": [{"measurement": "effect on enzyme reaction with the assay compound", "setting": "aminopeptidase", "value": "inhibitory"}]}, {"smiles": "OCCO", "note": "[ethylene glycol]", "values": [{"measurement": "assay performance (detection sensitivity)", "setting": "Caspase 6 [3]", "value": "improved assay performance"}]}, {"smiles": "N[C@@H](CCC(=O)[O-])C(=O)[O-].[K+].[K+]", "note": "[glutamate, potassium glutamate]", "values": [{"measurement": "detection of Caspase 6 activity", "setting": "Caspase 6 [4]; glutamate 1.5 M, 1.7 M, 1.8 M, 2.0 M, HeLa cells, 1 hour", "value": "dramatic improvement"}, {"measurement": "assay sensitivity", "setting": "Caspase 6 [4]; inclusion of glutamate, particularly if unmixed", "value": "improved assay sensitivity"}]}, {"smiles": "CCOC(=O)CC[C@H](N)C(=O)OCC", "note": "[glutamic acid diethyl ester]", "values": [{"measurement": "detection sensitivity", "setting": "Caspase 6 [3]", "value": "did not enhance detection sensitivity"}]}, {"smiles": "OCC(O)CO", "note": "[glycerol]", "values": [{"measurement": "effect on Caspase 1 assay", "setting": "Caspase 1; added unmixed glycerol ~40%", "value": "deleterious effect"}, {"measurement": "detection of Caspase 1 activity", "setting": "Caspase 1; [6]", "value": "dramatic improvement"}, {"measurement": "effect on Caspase 6 assay", "setting": "Caspase 6 [5]; added unmixed glycerol ~50%", "value": "deleterious effect"}, {"measurement": "detection of Caspase 6 activity", "setting": "Caspase 6 [5]; [6]", "value": "dramatic improvement"}, {"measurement": "relative signal, Caspase 3", "setting": "Caspase 3; raising the glycerol concentration from 0 to 50%, greater magnitude when unmixed", "value": "significant relative signal increase"}, {"measurement": "detection of Caspase 3 activity", "setting": "Caspase 3; [6]", "value": "dramatic improvement"}]}, {"smiles": "O=C(O)[C@@H]1CCCN1", "note": "[proline]", "values": [{"measurement": "detection sensitivity", "setting": "Caspase 6 [3]", "value": "did not enhance detection sensitivity"}]}, {"smiles": "O=C[C@H](O)[C@H](O)[C@H](O)CO", "note": "[ribose]", "values": [{"measurement": "assay performance (detection sensitivity)", "setting": "Caspase 6 [3]", "value": "improved assay performance"}]}, {"smiles": "OC[C@@H](O)[C@H](O)CO", "note": "[threitol]", "values": [{"measurement": "assay performance (detection sensitivity)", "setting": "Caspase 6 [3]", "value": "improved assay performance"}]}, {"smiles": "OC[C@H]1O[C@H](O[C@H]2O[C@H](CO)[C@@H](O)[C@H](O)[C@H]2O)[C@H](O)[C@@H](O)[C@@H]1O", "note": "[trehalose]", "values": [{"measurement": "assay performance (detection sensitivity)", "setting": "Caspase 6 [3]", "value": "improved assay performance"}]}, {"smiles": "C[N+](C)(C)[O-]", "note": "[trimethylamine N-oxide]", "values": [{"measurement": "assay performance (detection sensitivity)", "setting": "Caspase 6 [3]", "value": "improved assay performance"}]}]}
